What is called EC50 is the concentration needed to bring the measured effect to its halfway point.

Molecules are shown by their SMILES.

Format in all cases: cell-based
In experiment [1] the target is T1, hM1 (human Muscarinic receptor subtype 1) (Homo sapiens, UniProt P11229).
T1 construct: expressed in transfected cells; host or cells: CHO cells (ATCC)
T1 sequence (P11229 1-460): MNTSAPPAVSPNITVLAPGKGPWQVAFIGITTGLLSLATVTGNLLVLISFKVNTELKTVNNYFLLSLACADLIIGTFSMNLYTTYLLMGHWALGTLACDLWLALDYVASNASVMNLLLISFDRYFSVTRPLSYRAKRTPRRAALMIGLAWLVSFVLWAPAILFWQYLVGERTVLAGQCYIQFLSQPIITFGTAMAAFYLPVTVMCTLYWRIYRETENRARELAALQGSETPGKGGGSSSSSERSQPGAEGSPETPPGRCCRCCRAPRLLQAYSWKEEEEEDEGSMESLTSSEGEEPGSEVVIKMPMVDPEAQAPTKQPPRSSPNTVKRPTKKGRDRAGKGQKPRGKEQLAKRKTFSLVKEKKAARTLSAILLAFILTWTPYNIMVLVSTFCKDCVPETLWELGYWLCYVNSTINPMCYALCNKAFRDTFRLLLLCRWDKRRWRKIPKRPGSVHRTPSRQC
Nature of the experiment: Human M1 calcium mobilization FLIPR assay. The settings on record: hM1 expressed in CHO cells, intracellular Ca2+ release (FLIPR). Here is the method:
(§1) Human M1, rat M1, Human M3 and Human M5 Calcium Mobilization FLIPR™ Assay The compound activity in the present invention (EC50 or IC50) is measured using a 384 plate-based imaging assay that monitors drug induced intracellular Ca^2+ release in whole cells. Activation of hM1 (human Muscarinic receptor subtype 1, gene bank access NM_000738), rM1 (rat Muscarinic receptor subtype 1, gene bank access NM_080773), hM3 (human Muscarinic receptor subtype 3, gene bank access NM_000740NM_000740) and hM5 (human Muscarinic receptor subtype 5, gene bank access NM_0121258), receptors expressed in CHO cells (Chinese hamster ovary cells, ATCC) is quantified in a Molecular Devices FLIPR IITM instrument as an increase in fluorescent signal. Inhibition of hM3 and hM5 by compounds is determined by the decrease in fluorescent signal in response to 2 nM acetylcholine activation. […] Prior to experiment, the cell culture medium is removed from the plates by inversion. […] Plates are incubated at 37° C. for 60 minutes prior to start the experiment. The incubation is terminated by washing the cells four times in assay buffer, leaving a residual 25 μl buffer per well. Cell plates are then transferred to the FLIPR, ready for compound additions. The day of experiment, acetylcholine and compounds are diluted in assay buffer in three-fold concentration range (10 points serial dilution) for addition by FLIPR instrument. For all calcium assays, a baseline reading is taken for 10 seconds followed by the addition of 12.5 μl of compounds, resulting in a total well volume of 37.5 μl. Data is collected every second for 60 pictures and then every 6 seconds for 20 pictures prior to the addition of agonist. For hM3 and hM5, before agonist addition, a second baseline reading is taken for 10 seconds followed by the addition of 12.5 μl of agonist or buffer, producing a final volume of 50 μl. After agonist stimulation, the FLIPR continues to collect data every second for 60 pictures and then every 6 seconds for 20 pictures. The fluorescence emission is read using filter 1 (emission 510-570 nm) by the FLIPR on board CCD camera. Calcium mobilization output data are calculated as the maximal relative fluorescence unit (RFU) minus the minimal value for both compound and agonist reading frame (except for hM1 and rM1 using only the maximal RFU). Data are analyzed using sigmoidal fits of a non-linear curve-fitting program (XLfit version 4.2.2 Excel add-in version 4.2.2 build 18 math 1Q version 2.1.2 build 18). All pEC50 and pIC50 values are reported as arithmetic means±standard error of mean of ‘n’ independent experiments.
(In general: A change in cytosolic calcium serves as a functional read-out for many receptors and channels.)

Experiment [2] concerns the target T2, hM3 (human Muscarinic receptor subtype 3) (Homo sapiens, UniProt P20309).
T2 construct: expressed in transfected cells; host or cells: CHO cells (ATCC)
Nature of the experiment: Human M3 calcium mobilization FLIPR assay. As to conditions: hM3 expressed in CHO cells, intracellular Ca2+ release (FLIPR). The procedure: as §1

The target of experiment [3] is T3, hM5 (human Muscarinic receptor subtype 5) (Homo sapiens, UniProt P08912).
T3 construct: expressed in transfected cells; host or cells: CHO cells (ATCC)
T3 sequence (P08912 1-532): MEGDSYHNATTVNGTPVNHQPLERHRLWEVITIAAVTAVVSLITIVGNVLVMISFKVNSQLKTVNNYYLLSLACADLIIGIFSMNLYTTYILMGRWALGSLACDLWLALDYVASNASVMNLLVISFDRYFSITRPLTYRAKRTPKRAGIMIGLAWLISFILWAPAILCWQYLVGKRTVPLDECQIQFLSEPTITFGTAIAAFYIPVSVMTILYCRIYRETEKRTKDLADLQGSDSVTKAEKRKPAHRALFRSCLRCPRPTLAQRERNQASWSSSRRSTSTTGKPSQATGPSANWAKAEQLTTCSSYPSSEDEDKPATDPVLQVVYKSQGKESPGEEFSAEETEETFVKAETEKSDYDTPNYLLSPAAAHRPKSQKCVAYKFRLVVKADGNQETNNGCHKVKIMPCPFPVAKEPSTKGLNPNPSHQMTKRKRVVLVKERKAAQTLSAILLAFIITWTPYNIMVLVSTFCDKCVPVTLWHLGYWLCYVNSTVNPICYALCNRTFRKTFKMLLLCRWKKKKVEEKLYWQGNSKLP
Nature of the experiment: Human M5 calcium mobilization FLIPR assay. The settings on record: hM5 expressed in CHO cells, intracellular Ca2+ release (FLIPR). Here is the method: as §1

T2 sequence (P20309 whole entry): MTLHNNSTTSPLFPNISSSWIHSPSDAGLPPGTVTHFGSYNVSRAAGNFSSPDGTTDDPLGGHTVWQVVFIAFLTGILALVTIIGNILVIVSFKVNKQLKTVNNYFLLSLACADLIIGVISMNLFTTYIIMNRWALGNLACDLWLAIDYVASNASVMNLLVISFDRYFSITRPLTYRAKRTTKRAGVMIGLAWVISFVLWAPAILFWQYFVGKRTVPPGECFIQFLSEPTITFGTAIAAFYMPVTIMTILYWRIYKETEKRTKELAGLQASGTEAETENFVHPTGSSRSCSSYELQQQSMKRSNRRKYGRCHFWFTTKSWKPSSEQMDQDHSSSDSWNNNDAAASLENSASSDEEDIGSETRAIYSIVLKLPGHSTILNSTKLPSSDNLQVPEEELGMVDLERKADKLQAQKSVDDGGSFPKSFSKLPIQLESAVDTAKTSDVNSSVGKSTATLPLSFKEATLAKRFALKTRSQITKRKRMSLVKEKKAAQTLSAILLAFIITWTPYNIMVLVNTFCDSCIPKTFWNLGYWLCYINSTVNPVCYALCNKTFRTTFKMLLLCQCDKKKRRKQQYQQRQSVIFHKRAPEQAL

Regarding `O=C1CO[C@H]2CCCC[C@@H]2N1C1CCN(C2CCC(COCC3CC3)CC2)CC1` (single isomer, unassigned) [Example 23], in experiment [1], the EC50 is 38 nM.
Regarding `CCOCC1CC(N2CCC(N3C(=O)CO[C@H]4CCCC[C@@H]43)CC2)C1` (single isomer, unassigned) [Example 39], the EC50 in experiment [2] was more than 40000 nM; in experiment [1] it was 33 nM; in experiment [3] it was more than 40000 nM.
In the case of `O=C1CO[C@H]2CCCC[C@@H]2N1C1CCN(C2CCC(COCCF)CC2)CC1` (single isomer, unassigned) [Example 24], the EC50 in experiment [2] was more than 40000 nM; in experiment [1], 41 nM; in experiment [3], more than 40000 nM.
Consider `CCOCC1CCC(N2CCC(N3C(=O)CO[C@H]4CCCC[C@@H]43)CC2)C1` (single isomer, unassigned) [Example 45], for which the EC50 was more than 40000 nM in experiment [2], 48 nM in experiment [1] and more than 40000 nM in experiment [3].
Regarding `CCOC[C@H]1CC[C@@H](N2CCC(N3C(=O)CO[C@H]4CCCC[C@@H]43)CC2)C1` [Example 42, (4aS,8aS)-4-(1-((1R,3S)-3-(ethoxymethyl)cyclopentyl)piperidin-4-yl)hexahydro-2H-benzo[b][1,4]oxazin-3(4H)-one], the EC50 in experiment [2] is more than 2100 nM; in experiment [1] it was 4.2 nM; in experiment [3], more than 4220 nM.
Regarding `O=C1CO[C@H]2CCCC[C@@H]2N1C1CCN(C2CCC(COCC3CC3)CC2)CC1` (single isomer, unassigned) [Example 22], in experiment [1], the EC50 came out at 5.6 nM.
On the same count and under the same terms, the figure for `CCCOC1CCC(N2CCC(N3C(=O)NC[C@H]4CCCC[C@@H]43)CC2)CC1` (single isomer, unassigned) [Example 06] is 41 nM.
Regarding `O=C1COC2CCCC2N1C1CCN([C@H]2CC[C@@H](COCC3CC3)CC2)CC1` (single isomer, unassigned) [Example 48], the values for the EC50 in experiment [2], in experiment [1] and in experiment [3] were more than 40000 nM, 15 nM and more than 40000 nM, respectively.
Take `CCOC[C@@H]1CC[C@H](N2CCC(N3C(=O)CO[C@H]4CCCC[C@@H]43)CC2)C1` [Example 43, (4aS,8aS)-4-(1-((1S,3R)-3-(ethoxymethyl)cyclopentyl)piperidin-4-yl)hexahydro-2H-benzo[b][1,4]oxazin-3(4H)-one]: the values for the EC50 in experiment [2], in experiment [1] and in experiment [3] were more than 40000 nM, 12 nM and more than 40000 nM, respectively.
In the case of `O=C1CO[C@H]2CCCC[C@@H]2N1C1CCN(C2CCC(COCC(F)F)CC2)CC1` (single isomer, unassigned) [Example 27], the figures for the EC50 in experiment [2], in experiment [1] and in experiment [3] were more than 40000 nM, 4.2 nM and more than 40000 nM, respectively.
Regarding `CC(C)OCC1CCC(N2CCC(N3C(=O)CO[C@H]4CCC(F)(F)C[C@@H]43)CC2)CC1` (single isomer, unassigned) [Example 37], the EC50 was more than 40000 nM in experiment [2], 34 nM in experiment [1] and more than 40000 nM in experiment [3].
As for `CCCOCC1CCC(N2CCC(N3C(=O)NC[C@H]4CCCC[C@@H]43)CC2)CC1` (single isomer, unassigned) [Example 02], the figures for the EC50 in experiment [2], in experiment [1] and in experiment [3] were 1600 nM, 2 nM and more than 2770 nM, respectively.
For `CC(C)OCC1CCC(N2CCC(N3C(=O)CO[C@H]4CCCC[C@@H]43)CC2)CC1` (mixture of isomers) [Example 15, (4aS,8aS)-4-(1-(4-(isopropoxymethyl)cyclohexyl)piperidin-4-yl)hexahydro-2H-benzo[b][1,4]oxazin-3(4H)-one] the same measures were more than 40000 nM, 10 nM and more than 40000 nM.
For `CC(C)OCC1CCC(N2CCC(N3C(=O)NC[C@H]4CCCC[C@@H]43)CC2)CC1` (single isomer, unassigned) [Example 04] the same measures were 5100 nM, 3.2 nM and more than 40000 nM.
In the case of `CCOCC1CCC(N2CCC(N3C(=O)CO[C@H]4CCCC[C@@H]43)CC2)CC1` (single isomer, unassigned) [Example 13], the EC50 in experiment [2] is more than 40000 nM; in experiment [1], 17 nM; in experiment [3], more than 40000 nM.
Consider `CC(C)OCC1CCC(N2CCC(N3C(=O)CO[C@H]4CCCC[C@@H]43)CC2)CC1` (single isomer, unassigned) [Example 19], for which the EC50 in experiment [2] is more than 40000 nM; in experiment [1] it was 14 nM; in experiment [3] it was more than 40000 nM.
As for `CCCOCC1CCC(N2CCC(N3C(=O)NC[C@H]4CCCC[C@@H]43)CC2)CC1` (single isomer, unassigned) [Example 01], the results for the EC50 in experiment [2], in experiment [1] and in experiment [3] were more than 40000 nM, 21 nM and more than 40000 nM, respectively.
For `CCCOC1CCC(N2CCC(N3C(=O)CO[C@H]4CCCC[C@@H]43)CC2)CC1` (single isomer, unassigned) [Example 17], the EC50 in experiment [1] came to 88 nM.
With `CCOCC1CCC(N2CCC(N3C(=O)CO[C@H]4CCCC[C@@H]43)CC2)CC1` (single isomer, unassigned) [Example 14], the EC50 in experiment [2] was more than 40000 nM; in experiment [1], 9.9 nM; in experiment [3] it was more than 40000 nM.
Turning to `O=C1NC[C@H]2CCCC[C@@H]2N1C1CCN(C2CCC(COCC(F)F)CC2)CC1` (single isomer, unassigned) [Example 51], the EC50 in experiment [2] is more than 40000 nM; in experiment [1], 23 nM; in experiment [3] it was more than 15700 nM.
For `O=C1CO[C@H]2CCCC[C@@H]2N1C1CCN(C2CCC(COCCF)CC2)CC1` (single isomer, unassigned) [Example 25] the same measures were more than 40000 nM, 9.6 nM and more than 40000 nM.
`CC(C)OCC1CCC(N2CCC(N3C(=O)CO[C@H]4CCCC[C@@H]43)CC2)CC1` (single isomer, unassigned) [Example 18]: the EC50 was more than 40000 nM in experiment [2], 7.8 nM in experiment [1] and more than 40000 nM in experiment [3].
Turning to `CC(C)OCC1CCC(N2CCC(N3C(=O)CO[C@H]4CCC(F)(F)C[C@@H]43)CC2)CC1` (single isomer, unassigned) [Example 38], the EC50 in experiment [2] is more than 40000 nM; in experiment [1], 18 nM; in experiment [3], more than 40000 nM.
As to `O=C1CO[C@H]2CCCC[C@@H]2N1C1CCN(C2CC(COCC3CCC3)C2)CC1` (single isomer, unassigned) [Example 40], the EC50 in experiment [1] was 57 nM.
Consider `CCOCC1CCC(N2CCC(N3C(=O)NC[C@H]4CCCC[C@@H]43)CC2)CC1` (mixture of isomers) [Example 08, (4aR,8aS)-1-(1-(4-(ethoxymethyl)cyclohexyl)piperidin-4-yl)octahydroquinazolin-2(1H)-one], for which the EC50 in experiment [2] was 1100 nM; in experiment [1], 5.2 nM; in experiment [3], 69 nM.

For the origin of these results see patent publication US20090275574A1, “NOVEL COMPOUNDS-300” (ASTRAZENECA AB, priority 2008, published 2009).
